According to ChEMBL document CHEMBL4014328, “Piperazin-1-ylpyridazine Derivatives Are a Novel Class of Human dCTP Pyrophosphatase 1 Inhibitors” (J Med Chem, 2017):

How the values were obtained:
[1] = test system: hTERT-BJ; experiment: Cytotoxicity against human hTERT-BJ cells assessed as reduction in cell viability after 72 hrs by Resazurin assay; format: cell-based
[2] = Drug uptake in human MCF7 cells up to 20 uM; format: ADME, cell-based
[3] = Drug uptake in human HL60 cells at 10 uM; format: ADME, cell-based; settings: hl-60, 10 µM
[4] = target: T1, dCTP pyrophosphatase 1 (Homo sapiens, UniProt Q9H773)
T1 sequence (Q9H773 whole entry): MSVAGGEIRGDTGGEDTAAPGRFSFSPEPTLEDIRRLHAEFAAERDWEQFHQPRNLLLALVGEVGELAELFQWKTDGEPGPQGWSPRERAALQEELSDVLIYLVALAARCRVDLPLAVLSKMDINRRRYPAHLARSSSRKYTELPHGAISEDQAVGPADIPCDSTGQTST
Description: Inhibition of human full length N-terminal His-tagged dCTPase expressed in Escherichia coli BL21(DE3) using dCTP as substrate by HTS-based malachite green assay

[5] = test system: HL-60; experiment: Synergistic cytotoxicity against human HL60 cells assessed as reduction in cell viability after 72 hrs in presence of 5-AzaC by Resazurin assay; format: functional
[6] = target: T2, Stearoyl-CoA desaturase (Homo sapiens, UniProt O00767)
T2 sequence (O00767 whole entry): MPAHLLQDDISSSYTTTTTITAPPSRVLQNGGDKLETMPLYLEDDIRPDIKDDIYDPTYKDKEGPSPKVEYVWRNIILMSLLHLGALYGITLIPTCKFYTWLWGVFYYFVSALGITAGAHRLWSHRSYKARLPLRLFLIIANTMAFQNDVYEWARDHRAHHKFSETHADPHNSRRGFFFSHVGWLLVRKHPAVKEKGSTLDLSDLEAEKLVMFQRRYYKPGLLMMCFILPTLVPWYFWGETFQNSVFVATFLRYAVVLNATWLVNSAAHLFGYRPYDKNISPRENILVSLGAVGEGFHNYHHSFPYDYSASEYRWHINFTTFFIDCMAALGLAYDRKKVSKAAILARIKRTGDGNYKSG
Description: Inhibition of SCD1 in human HepG2 cells assessed as ratio of cellular protein product over substrate after 72 hrs

| Compound | IC50 [4] [µM] | also measured |
| --- | --- | --- |
| C#CCOC(=O)c1ccc(N2CCN(S(=O)(=O)c3ccccc3N3CCC(O)CC3)CC2)nn1 | 0.041 | Activity [1]: Non-Toxic; Drug uptake [2]: > 50%; Drug uptake [3]: > 50% |
| Cc1ccccc1S(=O)(=O)N1CC2CC1CN2c1ccc(C(=O)NCc2ccccc2)nn1 (stereo not given) | 1.7 |  |
| C#CCNC(=O)c1ccc(N2CCN(S(=O)(=O)c3cccc(Cl)c3C)CC2)nn1 | 0.034 |  |
| O=C(NCc1ccccc1)c1ccc(N2CCN(C(=O)c3ccccc3C(F)(F)F)CC2)nn1 | 0.24 |  |
| Cc1ccccc1S(=O)(=O)N1CCN(c2ccc(S(=O)(=O)CCc3ccccc3)nn2)CC1 | > 10 |  |
| Cc1c(Cl)cccc1S(=O)(=O)N1CCN(c2ccc(C(=O)NCc3cccs3)nn2)CC1 | 0.019 | CI [5]: <1 |
| O=C(NCc1ccccc1)c1ccc(N2CCN(S(=O)(=O)c3ccccc3N3CCC(O)CC3)CC2)nn1 | 0.26 |  |
| Cc1ncccc1S(=O)(=O)N1CCN(c2ccc(C(=O)NCc3ccc(F)cc3)nn2)CC1 | 0.036 | Activity [1]: Non-Toxic; Drug uptake [2]: > 50%; Drug uptake [3]: > 50% |
| Cc1ccccc1S(=O)(=O)C1CCN(c2ccc(C(=O)NCc3ccccc3)nn2)CC1 | 0.53 |  |
| O=C(NCCc1ccccc1)c1ccc(N2CCN(C(=O)c3ccccc3C(F)(F)F)CC2)nn1 | 2.8 |  |
| O=C(NCc1ccc(F)cc1)c1ccc(N2CCN(S(=O)(=O)c3cccnc3Cl)CC2)nn1 | 0.025 |  |
| O=C(NCc1ccccc1)c1ccc(N2CCN(S(=O)(=O)c3ccccc3F)CC2)nn1 | 0.35 |  |
| Cc1ccccc1S(=O)(=O)N1CCN(c2ccc(C(CO)(CO)CCc3ccc(F)cc3)nn2)CC1 | > 10 |  |
| C=C(CCc1ccc(F)cc1)c1ccc(N2CCN(S(=O)(=O)c3ccccc3C)CC2)nn1 | > 10 |  |
| Cc1ccccc1S(=O)(=O)N1CCN(c2ccc(C(=O)NCc3ccccc3)nn2)CC1 | 0.17 | Activity [1]: Non-Toxic; CI [5]: <1; IC50 [6]: 19.7 µM |
| O=C(NCc1ccccc1)c1ccc(N2CCN(S(=O)(=O)c3ccccc3C(F)(F)F)CC2)nn1 | 0.25 |  |
| Cc1ccccc1S(=O)(=O)N1CCN(c2ccc(C(=O)OCc3ccccc3)nn2)CC1 | 0.038 |  |
| Cc1ccccc1S(=O)(=O)N1CCN(c2ccc(CNCc3ccccc3)nn2)CC1 | > 10 |  |
| Cc1ccccc1S(=O)(=O)N1CCN(c2ccc(C(=O)NCc3cccs3)nn2)CC1 | 0.051 | CI [5]: <1 |
| Cc1ccccc1S(=O)(=O)N1CCN(c2ccc(C(=O)CCc3ccc(F)cc3)nn2)CC1 | 0.258 |  |
| Cc1ccccc1S(=O)(=O)N1CCN(c2ccc(C(=O)NCc3ccc(F)cc3)nn2)CC1 | 0.065 | Drug uptake [2]: > 50%; Drug uptake [3]: > 50% |
| Cc1ccccc1S(=O)(=O)N1CCCN(c2ccc(C(=O)NCc3ccccc3)nn2)CC1 | 3.2 |  |
| CN(C)c1ccccc1S(=O)(=O)N1CCN(c2ccc(C(=O)NCc3ccccc3)nn2)CC1 | 0.502 |  |
| Cc1ccccc1S(=O)(=O)N1CCN(c2ccc(C3(CCc4ccc(F)cc4)COC3)nn2)CC1 | > 10 |  |
| Cc1nnc(-c2ccc(N3CCC(Oc4cc(F)ccc4Cl)CC3)nn2)o1 |  | IC50 [6]: 0.67 µM |
| Cc1ccccc1[S+]([O-])C1CCN(c2ccc(C(=O)NCc3ccccc3)nn2)CC1 (stereo not given) | 1.1 |  |
| O=C(Nc1ccccc1)c1ccc(N2CCN(C(=O)c3ccccc3C(F)(F)F)CC2)nn1 | > 10 |  |
